By bioavailability is commonly meant dose-corrected exposure relative to a reference, in per cent. As a reminder, the inhibition in vivo is the relative decrease from the control value, in per cent. By half-life is commonly meant how long it takes for the measured level to halve. What is called IC50 is the concentration that gives 50% inhibition.

Activity calls are given as the source filed them. The calls are words filed in the database; no cut-off is given here.

Data set [1] in a line: Oral bioavailability in dog at 10 mg/kg. In kind it is ADME, organism-based, Canis lupus familiaris. Particulars: in vivo.
Data set [2] relates to Cynomolgus monkey. The data set can be described thus: Ex vivo inhibition of CETP in normal chow diet-fed cynomolgus monkey at 30 mg/kg, po for 5 days by Roar assay. The data set is classed as functional. Particulars: Macaca fascicularis, 120 h.
For data set [3], the system named is Cynomolgus monkey. The data set can be described thus: Increase in HDLC level in normal chow diet-fed cynomolgus monkey at 10 mg/kg, po for 5 days measured after 10 hrs of last dose. The data set is classed as functional, Macaca fascicularis.
Data set [4] is described as follows: Oral bioavailability in rat at 10 mg/kg. The data set is classed as ADME, organism-based. Particulars: in vivo.
Data set [5] can be described thus: Oral bioavailability in monkey at 10 mg/kg. The data set is classed as ADME, organism-based, Macaca mulatta. Particulars: rhesus monkey, in vivo.
The test system of data set [6] is Hamster. The data set can be described thus: Increase in HDLC level in po dosed high-fat fed hamster model. The data set is classed as functional, organism-based. The note with it: Cricetinae.
Data set [7] can be described thus: Plasma concentration in normal chow diet-fed cynomolgus monkey at 3 mg/kg, po for 5 days. In kind it is ADME, organism-based, Macaca fascicularis. More on the design: dose 3 mg/kg, route oral.
Data set [8] concerns the target T1, Hepatic triacylglycerol lipase (Homo sapiens) (UniProt P11150).
T1 sequence (whole entry): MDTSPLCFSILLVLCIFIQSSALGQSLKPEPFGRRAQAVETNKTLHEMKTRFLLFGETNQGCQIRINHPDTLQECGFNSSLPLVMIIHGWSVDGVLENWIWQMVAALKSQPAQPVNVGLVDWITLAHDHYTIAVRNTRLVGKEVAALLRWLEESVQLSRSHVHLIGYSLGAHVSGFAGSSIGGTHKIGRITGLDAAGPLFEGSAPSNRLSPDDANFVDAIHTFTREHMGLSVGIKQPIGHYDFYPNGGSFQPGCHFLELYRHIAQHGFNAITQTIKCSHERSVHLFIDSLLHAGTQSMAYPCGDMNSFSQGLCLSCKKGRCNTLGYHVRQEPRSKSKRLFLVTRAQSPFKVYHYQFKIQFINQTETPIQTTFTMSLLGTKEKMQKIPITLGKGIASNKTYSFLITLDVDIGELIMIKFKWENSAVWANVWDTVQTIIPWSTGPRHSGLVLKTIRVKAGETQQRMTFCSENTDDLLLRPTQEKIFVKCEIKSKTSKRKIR
The data set can be described thus: Inhibition of hepatic lipase activity assessed as release of free fatty acid from hydrolysis of VLDL by cell based assay.

Data set [9] is described as follows: Metabolic stability in human liver microsomes assessed as half life. The data set is classed as ADME, Microsome. In general terms: Liver microsomes are vesicles of endoplasmic reticulum, rich in cytochrome P450 enzymes.
In data set [10] the target is T2, Cholesteryl ester transfer protein (Homo sapiens, UniProt P11597).
T2 sequence (P11597 whole entry): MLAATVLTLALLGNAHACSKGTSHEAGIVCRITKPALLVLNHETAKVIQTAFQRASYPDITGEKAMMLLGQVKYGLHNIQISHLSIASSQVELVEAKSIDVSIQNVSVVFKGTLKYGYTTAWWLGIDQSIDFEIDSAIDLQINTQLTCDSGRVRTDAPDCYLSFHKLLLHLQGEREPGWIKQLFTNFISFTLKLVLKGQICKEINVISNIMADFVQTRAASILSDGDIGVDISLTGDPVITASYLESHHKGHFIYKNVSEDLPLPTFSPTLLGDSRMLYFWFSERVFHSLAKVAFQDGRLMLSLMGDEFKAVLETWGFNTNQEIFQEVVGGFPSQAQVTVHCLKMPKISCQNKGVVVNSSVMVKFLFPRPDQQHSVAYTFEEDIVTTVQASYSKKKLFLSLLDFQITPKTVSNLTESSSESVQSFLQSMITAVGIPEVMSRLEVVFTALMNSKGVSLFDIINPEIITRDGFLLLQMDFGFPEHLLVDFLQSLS
As to the kind of experiment: Inhibition of CETP-mediated transfer of cholesteryl ester to LDL/VLDL in human plasma by Roar assay. The data set is classed as cell-free.

In data set [11] the test system is Cynomolgus monkey. As to the kind of experiment: Increase in HDLC level in normal chow diet-fed cynomolgus monkey at 3 mg/kg, po for 5 days measured after 10 hrs of last dose. In kind it is functional, Macaca fascicularis.
Data set [12] in a line: Inhibition of CETP-mediated transfer of cholesteryl ester to LDL/VLDL in monkey plasma by Roar assay. In kind it is cell-free. The note with it: Macaca mulatta.
In data set [13] the test system is Hamster. As to the kind of experiment: Increase in HDLC level in high-fat fed hamster model at 30 mg/kg, po for 5 days measured after 2 hrs of last dose. The data set is classed as functional, Cricetinae.
A short description of data set [14]: Half life in rat at 2 to 3 mg/kg, iv and 10 mg/kg, po. The data set is classed as ADME, organism-based. The note with it: in vivo.
Data set [15] concerns the target T3, Lipoprotein lipase (Homo sapiens) (UniProt P06858).
T3 sequence (whole entry): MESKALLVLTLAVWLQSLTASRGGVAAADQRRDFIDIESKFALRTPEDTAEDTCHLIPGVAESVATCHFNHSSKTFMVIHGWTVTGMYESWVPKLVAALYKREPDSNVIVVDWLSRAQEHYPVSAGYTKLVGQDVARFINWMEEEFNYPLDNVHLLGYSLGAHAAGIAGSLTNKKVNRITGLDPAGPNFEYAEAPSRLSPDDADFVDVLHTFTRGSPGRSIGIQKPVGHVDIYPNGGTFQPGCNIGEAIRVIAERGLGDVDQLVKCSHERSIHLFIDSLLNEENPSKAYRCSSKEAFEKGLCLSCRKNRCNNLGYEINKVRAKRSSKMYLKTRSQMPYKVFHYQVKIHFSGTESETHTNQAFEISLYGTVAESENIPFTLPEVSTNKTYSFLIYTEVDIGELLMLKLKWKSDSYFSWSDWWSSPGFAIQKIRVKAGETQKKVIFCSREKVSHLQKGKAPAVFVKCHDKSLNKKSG
As to the kind of experiment: Inhibition of lipoprotein lipase activity assessed as release of free fatty acid from hydrolysis of VLDL by cell based assay.

Data set [16] concerns Cynomolgus monkey. The data set can be described thus: Ex vivo inhibition of CETP in normal chow diet-fed cynomolgus monkey at 10 mg/kg, po for 5 days by Roar assay. In kind it is functional. The note with it: Macaca fascicularis, 120 h.
Data set [17] has as its system Cynomolgus monkey. The data set can be described thus: Ex vivo inhibition of CETP in normal chow diet-fed cynomolgus monkey at 3 mg/kg, po for 5 days by Roar assay. The note with it: Macaca fascicularis, 120 h. In kind it is functional.
Data set [18] addresses T4, Phosphatidylcholine-sterol acyltransferase (Homo sapiens) (UniProt P04180).
T4 sequence (whole entry): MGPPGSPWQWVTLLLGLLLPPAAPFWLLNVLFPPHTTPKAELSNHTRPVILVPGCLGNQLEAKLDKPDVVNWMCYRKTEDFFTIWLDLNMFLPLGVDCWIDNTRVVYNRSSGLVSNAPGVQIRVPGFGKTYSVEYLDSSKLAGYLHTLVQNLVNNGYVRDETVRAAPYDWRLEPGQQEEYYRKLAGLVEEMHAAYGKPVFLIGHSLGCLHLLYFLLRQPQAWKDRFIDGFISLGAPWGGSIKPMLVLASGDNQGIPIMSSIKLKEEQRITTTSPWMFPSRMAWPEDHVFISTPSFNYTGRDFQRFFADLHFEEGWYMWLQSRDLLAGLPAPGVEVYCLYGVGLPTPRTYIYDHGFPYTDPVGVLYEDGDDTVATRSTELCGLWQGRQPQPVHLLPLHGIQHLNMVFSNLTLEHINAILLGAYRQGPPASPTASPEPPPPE
As to the kind of experiment: Inhibition of LCAT activity in human plasma assessed as change in cholesteryl ester/free cholesterol ratio by cell based assay.

The subject of data set [19] is Hamster. As to the kind of experiment: Increase in HDLC level in high-fat fed hamster model at 10 mg/kg, po for 5 days measured after 2 hrs of last dose. The data set is classed as functional, Cricetinae.
The subject of data set [20] is Mus musculus. As to the kind of experiment: Increase in HDLC level in normal chow diet-fed human CETP transgenic mouse model at 3 mg/kg, po for 5 days measured after 2 hrs of last dose. The arrangement: dose 3 mg/kg. The data set is classed as functional, organism-based.
A short description of data set [21]: Plasma concentration in normal chow diet-fed cynomolgus monkey at 30 mg/kg, po for 5 days. The data set is classed as ADME, organism-based, Macaca fascicularis. More on the design: dose 30 mg/kg, route oral.

For the molecule `O[C@@H](CN1c2cccc(-c3cccc(OC(F)(F)F)c3)c2CC[C@@H]1c1cccc(OC(F)(F)C(F)F)c1)C(F)(F)F`, the bioavailability turned out to be 5% in [1], 31% in [4] and 27% in data set [5]. This molecule yielded an inhibition in vivo at 30 mg/kg in [2] of 67%. Besides, the Activity was 16% in data set [3]; “Dose-dependent effect” in data set [6]; 4% in data set [11]; 40% in data set [13]; 36% in data set [19]. Moreover, the concentration at 120 h came out at 0.4 µM in data set [7] and 5.9 µM in data set [21]. Also, the result in data set [8], in data set [15] and in data set [18] was inactive. Besides, the values for the half-life in data set [9] and in data set [14] were more than 2.13 h and 28 h, respectively. For the same molecule, the figures for the 50% inhibitory concentration (IC50) in data set [10] and in [12] were 1200 nM and 1400 nM, respectively. For the same molecule, in data set [16], the inhibition in vivo at 10 mg/kg was 51%. In data set [17], this molecule came in with an inhibition in vivo at 3 mg/kg of 11%. The outcome in data set [20] was Active.

For the origin of these results see ChEMBL document CHEMBL1152778, “Design, synthesis, and biological evaluation of (2R,alphaS)-3,4-dihydro-2-[3-(1,1,2,2-tetrafluoroethoxy)phenyl]-5-[3-(trifluoromethoxy)-phenyl]-alpha-(trifluoromethyl)-1(2H)-quinolineethanol as potent and orally active cholesteryl ester transfer protein inhibitor” (J Med Chem, 2009).
